# Data reported in patent US7417054B2, “Naphthyridine compounds” (Janssen Pharmaceutica N.V., priority 2005, dated 2008).
# Like-named read-outs stand apart in the source and are kept apart here.
# Assays:
# [1] = target: T1, human H3 receptor (Homo sapiens, UniProt Q9Y5N1); test: H3 receptor binding, N-[3H]-α-methylhistamine displacement on SK-N-MC cell membranes; settings: cloned human H3 receptor in SK-N-MC cell membranes; 0.8 nM N-[3H]-α-methylhistamine; 60 min at 25° C.
# T1 construct: expressed in transfected cells; host or cells: SK-N-MC cells
# [2] = target: T2, human SERT (Homo sapiens, UniProt P31645); test: Human SERT binding, 3H-citalopram displacement on HEK293 membranes; settings: HEK293 membranes expressing the human SERT, rt for 1 h
# T2 construct: expressed in transfected cells; host or cells: HEK293
# Protocol: Homogenized HEK293 (Human Embryonic Kidney) membranes expressing the human SERT were incubated with ^3H-citalopram (SERT) at rt for 1 h in 50 mM Tris, 120 mM NaCl, 5 mM KCl (pH 7.4). […] The membranes were washed and the radioactivity was counted as above.
# [3] = target: T1, human H3 receptor; test: Cyclic AMP accumulation, β-galactosidase reporter in SK-N-MC cells; format: cell-based
# Protocol: Sublines of SK-N-MC cells were created that expressed a reporter construct and the human H3 receptor. The reporter gene (β-galactosidase) is under the control of multiple cyclic AMP responsive elements. In 96-well plates, histamine was added directly to the cell media followed 5 min later by an addition of forskolin (5 μM final concentration). When appropriate, antagonists were added 10 min prior to agonist addition. After a 6-h incubation at 37° C., the media was aspirated and the cells washed with 200 μL of phosphate-buffered saline followed by a second aspiration. Cells were lysed with 25 μL 0.1× assay buffer (10 mM Na-phosphate, pH 8, 0.2 mM MgSO4, 0.01 mM MnCl2) and incubated at rt for 10 min. Cells were then incubated for 10 min with 100 μL of 1× assay buffer containing 0.5% Triton and 40 mM β-mercaptoethanol. Color was developed using 25 μL of 1 mg/mL substrate solution (chlorophenolred β-D galactopyranoside; Roche Molecular Biochemicals, Indianapolis, Ind.) Color was quantitated on a microplate reader at absorbance 570 nm.
# [4] = target: Rat SERT (Rattus norvegicus, UniProt P31652); test: Rat brain SERT binding, [3H]-Citalopram displacement on rat brain membranes
# Protocol: The supernatant was removed and re-centrifuged at 15,000 rpm for 30 min. […] Membranes were incubated with 0.6 nM [^3H]-Citalopram plus/minus test compounds for 60 min at 25° C. and harvested by rapid filtration over GF/C glass fiber filters (pretreated with 0.3% polyethylenimine) followed by four washes with ice-cold buffer.
# [5] = read-out: Rat SERT Ki, rat brain membranes without cerebellum, 0.6 nM [3H]-Citalopram, 60 min at 25° C.
# [6] = Rat SERT Ki (nM), rat brain membranes without cerebellum, 0.6 nM [3H]-Citalopram, 60 min at 25° C.
# Rat SERT, sequence (P31652 whole entry): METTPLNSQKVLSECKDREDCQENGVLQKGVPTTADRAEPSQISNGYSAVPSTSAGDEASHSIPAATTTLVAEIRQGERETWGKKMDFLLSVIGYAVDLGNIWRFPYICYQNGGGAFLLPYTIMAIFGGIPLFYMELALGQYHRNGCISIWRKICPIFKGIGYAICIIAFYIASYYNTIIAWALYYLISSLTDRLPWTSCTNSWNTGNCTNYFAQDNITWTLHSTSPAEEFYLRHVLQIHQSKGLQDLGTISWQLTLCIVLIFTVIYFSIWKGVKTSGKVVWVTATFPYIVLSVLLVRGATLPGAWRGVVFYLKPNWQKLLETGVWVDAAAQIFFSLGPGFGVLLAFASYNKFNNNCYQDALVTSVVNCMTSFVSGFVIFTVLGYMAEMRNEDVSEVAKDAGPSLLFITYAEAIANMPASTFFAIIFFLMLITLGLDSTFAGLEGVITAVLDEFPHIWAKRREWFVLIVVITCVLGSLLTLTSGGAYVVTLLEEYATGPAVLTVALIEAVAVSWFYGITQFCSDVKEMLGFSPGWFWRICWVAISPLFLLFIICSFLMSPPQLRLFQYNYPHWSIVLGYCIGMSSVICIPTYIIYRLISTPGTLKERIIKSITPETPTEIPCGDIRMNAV
# T2 sequence (P31645 whole entry): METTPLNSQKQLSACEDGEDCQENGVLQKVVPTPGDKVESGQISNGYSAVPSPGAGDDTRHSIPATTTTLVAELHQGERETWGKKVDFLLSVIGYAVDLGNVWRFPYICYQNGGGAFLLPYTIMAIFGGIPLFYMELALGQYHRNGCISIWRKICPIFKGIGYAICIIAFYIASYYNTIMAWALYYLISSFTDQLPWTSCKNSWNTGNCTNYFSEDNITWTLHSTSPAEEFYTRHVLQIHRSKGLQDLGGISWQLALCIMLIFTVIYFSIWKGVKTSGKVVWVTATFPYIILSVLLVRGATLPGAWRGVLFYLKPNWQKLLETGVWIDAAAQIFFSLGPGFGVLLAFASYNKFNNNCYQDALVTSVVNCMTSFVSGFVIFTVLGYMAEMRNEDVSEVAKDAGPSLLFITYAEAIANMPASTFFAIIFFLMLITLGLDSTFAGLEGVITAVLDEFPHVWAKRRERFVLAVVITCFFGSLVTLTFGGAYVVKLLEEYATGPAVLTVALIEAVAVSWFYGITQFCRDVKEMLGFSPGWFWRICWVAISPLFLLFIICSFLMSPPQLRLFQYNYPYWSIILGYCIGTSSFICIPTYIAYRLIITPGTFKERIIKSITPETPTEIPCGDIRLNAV
# T1 sequence (Q9Y5N1 whole entry): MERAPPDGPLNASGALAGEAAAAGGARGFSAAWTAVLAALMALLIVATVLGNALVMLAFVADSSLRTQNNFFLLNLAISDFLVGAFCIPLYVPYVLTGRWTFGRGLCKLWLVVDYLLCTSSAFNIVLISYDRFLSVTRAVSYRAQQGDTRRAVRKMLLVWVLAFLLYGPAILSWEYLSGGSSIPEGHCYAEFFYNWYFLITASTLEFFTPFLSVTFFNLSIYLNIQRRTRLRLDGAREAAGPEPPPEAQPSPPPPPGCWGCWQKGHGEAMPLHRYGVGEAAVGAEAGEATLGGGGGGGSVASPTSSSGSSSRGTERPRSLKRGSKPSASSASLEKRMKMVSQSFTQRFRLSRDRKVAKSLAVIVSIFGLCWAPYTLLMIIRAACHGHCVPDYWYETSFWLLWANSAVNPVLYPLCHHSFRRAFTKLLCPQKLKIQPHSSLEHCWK
Ki [1] [nM],Kb ([3]; read-out: pA2 (converted)) [nM],Ki [4] [nM],"Ki [4, 6] [nM]",SMILES,Ki [2] [nM],Kb [3] [nM],"Ki [4, 5] [nM]"
1,0.794,1000,,"Fc1ccccc1C1CNCc2cc(OCCCN3CCCCC3)ncc21 (stereo not shown) [Example 1, 4-(2-Fluoro-phenyl)-7-(3-piperidin-1-yl-propoxy)-1,2,3,4-tetrahydro-[2,6]naphthyridine]",,,
1,1,179,,"COc1cccc(C2CNCc3cc(OCCCN4CCCCC4)ncc32)c1 (stereo not shown) [Example 13, 4-(3-Methoxy-phenyl)-7-(3-piperidin-1-yl-propoxy)-1,2,3,4-tetrahydro-[2,6]-naphthyridine]",,,
2,2.51,312,,"Fc1ccc(C2CNCc3cc(OCCCN4CCCCC4)ncc32)cc1 (stereo not shown) [Example 17, 4-(4-Fluoro-phenyl)-7-(3-piperidin-1-yl-propoxy)-1,2,3,4-tetrahydro-[2,6]naphthyridine]",1030,,
9,3.98,,,"CN1Cc2cc(OCCCN3CCCCC3)ncc2C(c2ccc(F)cc2)C1 (stereo not shown) [Example 18, 4-(4-Fluoro-phenyl)-2-methyl-7-(3-piperidin-1-yl-propoxy)-1,2,3,4-tetrahydro-[2,6]-naphthyridine]",362,,186
2,2.51,,269,"Clc1cccc(C2CNCc3cc(OCCCN4CCCCC4)ncc32)c1 (stereo not shown) [Example 24, 4-(3-Chloro-phenyl)-7-(3-piperidin-1-yl-propoxy)-1,2,3,4-tetrahydro-[2,6]naphthyridine]",,,
4,3.98,,,"COc1ccc(C2CNCc3cc(OCC4CCN(C(C)C)CC4)ncc32)cc1 (stereo not shown) [Example 31, 7-(1-Isopropyl-piperidin-4-ylmethoxy)-4-(4-methoxy-phenyl)-1,2,3,4-tetrahydro-[2,6]-naphthyridine]",93,,15
2,2.51,2000,,"Fc1cccc(C2CNCc3cc(OCCCN4CCCCC4)ncc32)c1 (stereo not shown) [Example 32, 4-(3-Fluoro-phenyl)-7-(3-piperidin-1-yl-propoxy)-1,2,3,4-tetrahydro-[2,6]naphthyridine]",,,
1,3.16,142,,"Fc1ccc(C2CNCc3cc(OCCCN4CCCCC4)ncc32)cc1Cl (stereo not shown) [Example 33, 4-(3-Chloro-4-fluoro-phenyl)-7-(3-piperidin-1-yl-propoxy)-1,2,3,4-tetrahydro-[2,6]naphthyridine]",,,

# More lines, now with the values behind:
SMILES,Ki [1] [nM],Kb ([3]; read-out: pA2 (converted)) [nM],Ki [4] [nM],"Ki [4, 6] [nM]",Ki [2] [nM],Kb [3] [nM],"Ki [4, 5] [nM]"
"Clc1ccc(C2CNCc3cc(OCCCN4CCCCC4)ncc32)cc1Cl (racemic) [Example 15, 4-(3,4-Dichloro-phenyl)-7-(3-piperidin-1-yl-propoxy)-1,2,3,4-tetrahydro-[2,6]-naphthyridine]",5,12.6,20,,33,,
"CN1Cc2cc(OCCCN3CCCCC3)ncc2C(c2ccc(Cl)c(Cl)c2)C1 (racemic) [Example 16, 4-(3,4-Dichloro-phenyl)-2-methyl-7-(3-piperidin-1-yl-propoxy)-1,2,3,4-tetrahydro-[2,6]-naphthyridine]",18,,,,120,20,
"CN1Cc2cc(OCCCN3CCCCC3)ncc2C(c2ccccc2F)C1 (stereo not shown) [Example 2, 4-(2-Fluoro-phenyl)-2-methyl-7-(3-piperidin-1-yl-propoxy)-1,2,3,4-tetrahydro-[2,6]-naphthyridine]",2,1,,,768,,191
"c1ccc(C2CNCc3cc(OCCCN4CCCCC4)ncc32)cc1 (stereo not shown) [Example 4, 4-Phenyl-7-(3-piperidin-1-yl-propoxy)-1,2,3,4-tetrahydro-[2,6]naphthyridine]",1,0.794,,,2330,,1670
"CCN(CC)CCCOc1cc2c(cn1)C(c1ccccc1)CNC2 (stereo not shown) [Example 5, Diethyl-[3-(8-phenyl-5,6,7,8-tetrahydro-[2,6]naphthyridin-3-yloxy)-propyl]-amine]",1,2,,1200,,,
"COc1ccc(C2CNCc3cc(OCCCN4CCCCC4)ncc32)cc1 (stereo not shown) [Example 6, 4-(4-Methoxy-phenyl)-7-(3-piperidin-1-yl-propoxy)-1,2,3,4-tetrahydro-[2,6]-naphthyridine]",4,6.31,,2280,147,,
"CCN(CC)CCCOc1cc2c(cn1)C(c1ccccc1)CN(C)C2 (stereo not shown) [Example 7, Diethyl-[3-(6-methyl-8-phenyl-5,6,7,8-tetrahydro-[2,6]naphthyridin-3-yloxy)-propyl]-amine]",4,0.631,,,2000,,583
"CCN(CC)CCCOc1cc2c(cn1)C(c1ccc(Cl)c(Cl)c1)CNC2 (stereo not shown) [Example 21, {3-[8-(3,4-Dichloro-phenyl)-5,6,7,8-tetrahydro-[2,6]naphthyridin-3-yloxy]-propyl}-diethyl-amine]",7,15.8,,,26,,15
"Clc1ccc(C2CNCc3cc(OCCCN4CCCCC4)ncc32)cc1 (stereo not shown) [Example 23, 4-(4-Chloro-phenyl)-7-(3-piperidin-1-yl-propoxy)-1,2,3,4-tetrahydro-[2,6]naphthyridine]",2,3.98,,,141,,30
"Clc1ccccc1C1CNCc2cc(OCCCN3CCCCC3)ncc21 (stereo not shown) [Example 25, 4-(2-Chloro-phenyl)-7-(3-piperidin-1-yl-propoxy)-1,2,3,4-tetrahydro-[2,6]naphthyridine]",1,1,,,1330,,194
"CN1Cc2cc(OCCCN3CCCCC3)ncc2C(c2cccc(F)c2)C1 (stereo not shown) [Example 34, 4-(3-Fluoro-phenyl)-2-methyl-7-(3-piperidin-1-yl-propoxy)-1,2,3,4-tetrahydro-[2,6]-naphthyridine]",2,1,186,,,,
"c1ccc(C2CNCc3cc(OCCCN4CCOCC4)ncc32)cc1 (stereo not shown) [Example 47, 7-(3-Morpholin-4-yl-propoxy)-4-phenyl-1,2,3,4-tetrahydro-[2,6]naphthyridine]",11,,,,,12.6,
